Measured values reported in US20220288052A1, “COMPOUND FOR COMBINATION TREATMENT” (priority 2019, published 2022).
Like-named read-outs stand apart in the source and are kept apart here.

Assays:
[1] = 14-day repeat-dose study in NMRI mice; format: in vivo, mouse
Protocol: In a 14-day repeat-dose study 4 groups of 8 male and 8 female NMRI mice were treated daily with compound (I) at doses of 15, 30, and 60 mg/kg p.o. (Groups 2, 3 and 4), or vehicle, 5% glucose s.c. (Group 1). A satellite group 90 mg/kg p.o. (group 5) was conducted accordingly to increase the exposure and efficacy.

[2] = Exposure and tissue distribution after 14 days repeat dosing, mouse; format: in vivo; settings: for concentration at 2 h / Kp at 2 h: mouse, po, 2 h post last dose
Protocol: Single time point data is available from two 14 days repeat dose studies in mice and rats dosed to both sexes. The three low doses were performed together as one study and the top dose was performed at another occasion as a satellite study.
Samples were taken 2 h post last dose.
Plasma, brain and liver were taken 2 h post last dose.

in vivo = settings: male, Wistar, rat, plasma
NET = NET (Homo sapiens, UniProt P23975); test: MDS LeadProfilingScreen, NET; format: binding
Sequence of NET (P23975 whole entry): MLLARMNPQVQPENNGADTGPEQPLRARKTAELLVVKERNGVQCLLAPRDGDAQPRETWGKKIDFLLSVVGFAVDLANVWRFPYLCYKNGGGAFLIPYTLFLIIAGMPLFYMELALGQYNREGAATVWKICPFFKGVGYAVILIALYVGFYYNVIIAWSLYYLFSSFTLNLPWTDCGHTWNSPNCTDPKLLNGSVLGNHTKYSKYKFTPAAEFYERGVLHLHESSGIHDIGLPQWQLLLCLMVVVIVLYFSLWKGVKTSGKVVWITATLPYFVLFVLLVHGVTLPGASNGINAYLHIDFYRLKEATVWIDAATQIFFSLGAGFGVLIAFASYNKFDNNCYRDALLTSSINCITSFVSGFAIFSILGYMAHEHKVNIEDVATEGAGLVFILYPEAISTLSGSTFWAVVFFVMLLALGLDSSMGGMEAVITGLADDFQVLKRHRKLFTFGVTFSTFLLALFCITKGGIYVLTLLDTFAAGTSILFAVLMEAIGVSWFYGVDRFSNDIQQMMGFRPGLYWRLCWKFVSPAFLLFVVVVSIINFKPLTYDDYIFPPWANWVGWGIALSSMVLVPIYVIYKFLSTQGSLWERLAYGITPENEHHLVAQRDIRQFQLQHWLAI

NMRI mice = test: Mouse stress-induced hyperthermia test (mSIH); format: in vivo
Protocol: FIG. 14: Stress-induced hyperthermia. When mice are confronted with a stress-full event, the body temperature rises.
Compound (I) was tested in three widely used behavioural screens for predicting anxiolytic effects in the clinic: the mouse marble burying test (mMB), mouse zero maze (mZM) and mouse stress-induced hyperthermia test (mSIH).

[3] = tested on: rat corpus cavernosum strips; test: Corpus cavernosum contractility
Protocol: FIG. 29: Original traces showing the effect of compound (I) on resting tone in rat corpus cavernosum strips. Increasing concentrations (10^−9-3×10^−5 M) of compound (I) were added. Compound (I) induced small relaxations, while at the highest concentration (3×10^−5 M) contraction was observed occasionally (lower trace).
FIG. 30: Average results showing the effect of compound (I) on resting tone in rat corpus cavernosum strips. Increasing concentrations (10^−9-3×10^−5 M) of compound (I) were added. Compound (I) induced small relaxations, while at the highest concentration (3×10^−5 M) contraction was observed occasionally (lower trace). Compound (I) responses were obtained in the presence of vehicle, sildenafil (10^−7 M), guanethidine (10^−5 M), and L-NOARG (10^−4 M). Results are means±s.e. mean of preparations from 5 rats.
FIG. 31: Original traces showing relaxations to compound (I) in rat corpus cavernosum strips contracted with phenylephrine (Phe). Representative traces show compound (I) relaxation in the presence of vehicle, guanethidine (10^−5 M), L-NOARG (10^−4 M), sildenafil (10^−7 M), in phenylephrine-contracted preparations.
FIG. 32: Average relaxations induced by compound (I) in rat corpus cavernosum strips. In phenylephrine-contracted preparations, increasing concentrations (10^−9-3×10^−5 M) of compound (I). […]

DA transporter = DA transporter (Rattus norvegicus, UniProt P23977); test: ^3H-uptake rat, DA transporter; format: biochemical
Sequence of DA transporter (P23977 whole entry): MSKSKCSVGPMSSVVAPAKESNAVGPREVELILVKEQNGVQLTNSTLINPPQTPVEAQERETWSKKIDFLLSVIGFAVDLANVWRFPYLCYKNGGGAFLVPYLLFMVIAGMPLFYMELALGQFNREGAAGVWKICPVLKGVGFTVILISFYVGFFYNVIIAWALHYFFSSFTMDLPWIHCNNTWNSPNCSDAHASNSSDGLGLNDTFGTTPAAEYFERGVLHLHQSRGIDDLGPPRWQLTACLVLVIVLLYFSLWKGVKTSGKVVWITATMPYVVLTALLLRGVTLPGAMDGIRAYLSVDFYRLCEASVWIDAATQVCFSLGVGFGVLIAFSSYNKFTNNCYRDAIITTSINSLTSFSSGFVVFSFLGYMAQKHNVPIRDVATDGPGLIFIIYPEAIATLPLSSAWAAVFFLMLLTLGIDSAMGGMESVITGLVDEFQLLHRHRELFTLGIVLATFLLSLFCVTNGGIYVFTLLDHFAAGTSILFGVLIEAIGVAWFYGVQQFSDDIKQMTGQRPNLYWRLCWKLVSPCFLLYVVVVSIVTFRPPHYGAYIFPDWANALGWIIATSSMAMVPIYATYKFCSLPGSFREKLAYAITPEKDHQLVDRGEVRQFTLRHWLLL
From the text: Compound (I) has been characterized as a monoamine reuptake inhibitor, based on the profile in a series of functional assays (Table 2).

[4] = Cardiovascular safety in anaesthetised dogs
Protocol: Data presented are mean±s.e. mean where n=4 for all time points, excluding D2t7 where n=3, D3t7 where n=2, and D4t7 and D4t26 where no data was available. Animals received 1, 3, 10, and 30 mg/kg compound (I) as 4 intravenous infusions (starting at t0, D1t30, D2t30 and D3t30, respectively). Each dose was administered over 5 min, using an infusion pump, and the dose volume for each treatment was 2 ml/kg, with the exception of the fourth dose which was 3 ml/kg.
Data presented are mean±s.e. mean where n=4 for all time points, excluding D4t7 and D4t26 where no data was available. Animals received 1, 3, 10, and 30 mg/kg compound (I) as 4 intravenous infusions (starting at t0, D1t30, D2t30 and D3t30, respectively). Each dose was administered over 5 min, using an infusion pump, and the dose volume for each treatment was 2 ml/kg, with the exception of the fourth dose which was 3 ml/kg.

[5] = Linearity after single s.c. dose in rat; format: in vivo; settings: for AUC(0-inf) / Cmax / bioavailability / half-life: Wistar, rat; for AUC(0-inf) / Cmax / bioavailability / half-life / Tmax: plasma, sc; for half-life: read-out: T½ (converted); for Tmax: male Wistar rat, 5% Tween 80
C57 mice = test: Mouse tail suspension test (mTST); format: in vivo; settings: i.p. 30 min
Protocol: C57 males, 25-28 g, Taconic, 16/8-06. Mice acclimatized to ground floor 5 days before testing. Mice saline injected once a day twice before test day. 22° C., N=7-8.

[6] = 60 mg/kg p.o. 14 days (Group 4)
[7] = 90 mg/kg p.o. 14 days (Group 5)

## O=c1ccc2ccc(O[C@@H]3C[C@H]4CC[C@@H](C3)N4)cc2o1 [Compound (I), exo-7-(8-aza-bicyclo[3.2.1]oct-3-yloxy)-chromen-2-one]
[1]; [6]
  Activity: increase in activity in both male and female
  Body weight: significant decrease in body weight in the female group
  Relative liver weight: significant decrease in relative liver weight in both sexes
[1]; [7]
  Activity: increase in activity in both male and female
  Body weight and relative liver weight: significant decrease in body weight and in relative liver weight in both sexes
[1]; 15 up to 90 mg/kg/day p.o. 14 days
  Macroscopic findings at termination: no treatment-related macroscopic findings
[2]; NMRI, brain, Female mice, 15 mg/kg p.o. 14 days, read-out: Brain concentration
  concentration at 2 h: 2640 ng/g
[2]; NMRI, brain, Female mice, 15 mg/kg p.o. 14 days, read-out: Brain/plasma ratio
  Kp at 2 h: 7
[2]; NMRI, brain, Female mice, 30 mg/kg p.o. 14 days, read-out: Brain concentration
  concentration at 2 h: 7070 ng/g
[2]; NMRI, brain, Female mice, 30 mg/kg p.o. 14 days, read-out: Brain/plasma ratio
  Kp at 2 h: 6
[2]; NMRI, brain, Female mice, 60 mg/kg p.o. 14 days, read-out: Brain concentration
  concentration at 2 h: 11500 ng/g
[2]; NMRI, brain, Female mice, 60 mg/kg p.o. 14 days, read-out: Brain/plasma ratio
  Kp at 2 h: 6
[2]; NMRI, brain, Female mice, 90 mg/kg p.o. 14 days, read-out: Brain concentration
  concentration at 2 h: 17100 ng/g
[2]; NMRI, brain, Male mice, 15 mg/kg p.o. 14 days, read-out: Brain concentration
  concentration at 2 h: 1970 ng/g
[2]; NMRI, brain, Male mice, 15 mg/kg p.o. 14 days, read-out: Brain/plasma ratio
  Kp at 2 h: 7
[2]; NMRI, brain, Male mice, 30 mg/kg p.o. 14 days, read-out: Brain concentration
  concentration at 2 h: 4720 ng/g
[2]; NMRI, brain, Male mice, 30 mg/kg p.o. 14 days, read-out: Brain/plasma ratio
  Kp at 2 h: 6
[2]; NMRI, brain, Male mice, 60 mg/kg p.o. 14 days, read-out: Brain concentration
  concentration at 2 h: 8080 ng/g
[2]; NMRI, brain, Male mice, 60 mg/kg p.o. 14 days, read-out: Brain/plasma ratio
  Kp at 2 h: 6
[2]; NMRI, brain, Male mice, 90 mg/kg p.o. 14 days, read-out: Brain concentration
  concentration at 2 h: 21100 ng/g
[2]; NMRI, in vivo, Female mice, 15 mg/kg p.o. 14 days, read-out: Liver/plasma ratio
  Kp at 2 h: 18
[2]; NMRI, in vivo, Female mice, 30 mg/kg p.o. 14 days, read-out: Liver/plasma ratio
  Kp at 2 h: 18
[2]; NMRI, in vivo, Female mice, 60 mg/kg p.o. 14 days, read-out: Liver/plasma ratio
  Kp at 2 h: 21
[2]; NMRI, in vivo, Male mice, 15 mg/kg p.o. 14 days, read-out: Liver/plasma ratio
  Kp at 2 h: 28
[2]; NMRI, in vivo, Male mice, 30 mg/kg p.o. 14 days, read-out: Liver/plasma ratio
  Kp at 2 h: 17
[2]; NMRI, in vivo, Male mice, 60 mg/kg p.o. 14 days, read-out: Liver/plasma ratio
  Kp at 2 h: 12
[2]; NMRI, liver, Female mice, 15 mg/kg p.o. 14 days, read-out: Liver concentration
  concentration at 2 h: 7160 ng/g
[2]; NMRI, liver, Female mice, 30 mg/kg p.o. 14 days, read-out: Liver concentration
  concentration at 2 h: 22500 ng/g
[2]; NMRI, liver, Female mice, 60 mg/kg p.o. 14 days, read-out: Liver concentration
  concentration at 2 h: 42000 ng/g
[2]; NMRI, liver, Male mice, 15 mg/kg p.o. 14 days, read-out: Liver concentration
  concentration at 2 h: 8220 ng/g
[2]; NMRI, liver, Male mice, 30 mg/kg p.o. 14 days, read-out: Liver concentration
  concentration at 2 h: 12700 ng/g
[2]; NMRI, liver, Male mice, 60 mg/kg p.o. 14 days, read-out: Liver concentration
  concentration at 2 h: 17700 ng/g
[2]; NMRI, plasma, Female mice, 15 mg/kg p.o. 14 days, read-out: Plasma concentration
  concentration at 2 h: 390 ng/mL
[2]; NMRI, plasma, Female mice, 30 mg/kg p.o. 14 days, read-out: Plasma concentration
  concentration at 2 h: 1280 ng/mL
[2]; NMRI, plasma, Female mice, 60 mg/kg p.o. 14 days, read-out: Plasma concentration
  concentration at 2 h: 2000 ng/mL
[2]; NMRI, plasma, Male mice, 15 mg/kg p.o. 14 days, read-out: Plasma concentration
  concentration at 2 h: 289 ng/mL
[2]; NMRI, plasma, Male mice, 30 mg/kg p.o. 14 days, read-out: Plasma concentration
  concentration at 2 h: 762 ng/mL
[2]; NMRI, plasma, Male mice, 60 mg/kg p.o. 14 days, read-out: Plasma concentration
  concentration at 2 h: 1420 ng/mL
[2]; mice, 15-90 mg/kg p.o. 14 days, 5% glucose
  Linearity of kinetics after repeat dosing: tendency to sub-linear kinetics
[2]; brain, Female mice, 90 mg/kg p.o. 14 days, read-out: Brain/plasma ratio
  Kp at 2 h: 4
[2]; brain, Male mice, 90 mg/kg p.o. 14 days, read-out: Brain/plasma ratio
  Kp at 2 h: 4
[2]; in vivo, Female mice, 90 mg/kg p.o. 14 days, read-out: Liver/plasma ratio
  Kp at 2 h: 16
[2]; in vivo, Male mice, 90 mg/kg p.o. 14 days, read-out: Liver/plasma ratio
  Kp at 2 h: 16
[2]; liver, Female mice, 90 mg/kg p.o. 14 days, read-out: Liver concentration
  concentration at 2 h: 63300 ng/g
[2]; liver, Male mice, 90 mg/kg p.o. 14 days, read-out: Liver concentration
  concentration at 2 h: 75000 ng/g
[2]; plasma, Female mice, 90 mg/kg p.o. 14 days, read-out: Plasma concentration
  concentration at 2 h: 3980 ng/mL
[2]; plasma, Male mice, 90 mg/kg p.o. 14 days, read-out: Plasma concentration
  concentration at 2 h: 4730 ng/mL
In vivo; intravenous, 2.5 mg/kg
  Vd: 5.6 L/kg
  clearance: 137 mL/min/kg
In vivo; iv, 2.5 mg/kg
  AUC(0-inf): 306 ng·h/mL
  half-life: 48 min
In vivo; oral, 5 mg/kg
  bioavailability: 3%
In vivo; po, 5 mg/kg
  AUC(0-inf): 17 ng·h/mL
  Cmax: 8 ng/mL
  Tmax: 30 min
NET
  Ki: 594 nM
NET; NET, Human, 10 μM
  inhibition at 10 µM: 92%
NMRI mice; 0.1, 1 and 3 mg/kg per oral, NMRI mice
  Body temperature in resting conditions: did not change body temperature in resting conditions
NMRI mice; 0.1, 1 and 3 mg/kg per oral, NMRI mice, all three doses
  Stress-induced temperature rise: temperature rise was significantly prevented
NMRI mice; mSIH, p.o., −60 min
  MED: 0.3 mg/kg
[3]; resting corpus cavernosum strips, 10^−9-3×10^−5 M
  Effect on resting tone: only small relaxations
[3]; strips contracted with phenylephrine (10^−6 M)
  Relaxation of contracted strips: concentration-dependent relaxations were observed at higher concentrations
DA transporter
  IC50: 260 nM
[4]; 1, 3, 10 and 30 mg/kg i.v.
  Heart rate: Dose-dependent increases
  RR interval: dose-dependent decreases
[4]; 1, 3, 10 and 30 mg/kg i.v., apparent decrease following 10 and 30 mg/kg
  Arterial blood pressure (mean, systolic and diastolic): No consistent changes
[4]; 1, 3, 10 and 30 mg/kg i.v., potential PR shortening at 30 mg/kg
  PR interval and QRS duration: relatively unaffected
[4]; beagle, dog, plasma, intravenous
  concentration at 5 min: 6500 to 15000 ng/mL
[4]; corrected for heart rate/RR interval, also when paced at 90 or 110 bpm
  QTcF and QTcV intervals: clear dose-dependent increase
[5]; 1 mg/kg s.c.
  AUC(0-inf): 125 ng·h/mL
  Cmax: 69 ng/mL
  half-life: 40.2 min
  Tmax: 1 h
[5]; 1 mg/kg s.c., compared to 10 mg/kg i.v. in same vehicle
  bioavailability: 117%
[5]; 5 mg/kg s.c.
  Cmax: 320 ng/mL
  half-life: 46.2 min
  Tmax: 1 h
[5]; 5 mg/kg s.c., compared to 10 mg/kg i.v. in same vehicle
  bioavailability: 113%
[5]; 10 mg/kg s.c.
  Cmax: 729 ng/mL
  half-life: 40.8 min
  Tmax: 0.5 h
[5]; 10 mg/kg s.c., compared to 10 mg/kg i.v. in same vehicle
  bioavailability: 108%
[5]; s.c. dosing in rats
  bioavailability: ~100%
[5]; male, 5 mg/kg s.c.
  AUC(0-inf): 604 ng·h/mL
[5]; male, 10 mg/kg s.c.
  AUC(0-inf): 1150 ng·h/mL
[5]; rats s.c., relatively low doses, single dose
  Linearity of kinetics (AUC versus dose): very nice linear kinetics
C57 mice
  MED: <5 mg/kg
